Laboratory results taken from US20260256728A1, “TREATMENT FOR ASYMPTOMATIC STARGARDT DISEASE PATIENTS” (priority 2024, published 2026).
Entries after “also recorded” stand apart in the source; their conditions may differ.

Assays:
[1] = TEASE-3 plasma gildeuretinol; format: in vivo, human; conditions: 14 mg daily
Protocol: (§1) The tolerability and effects of ALK-001 (gildeuretinol acetate) in Stargardt Disease (Clinical trial group 3, also known as TEASE-3) study was an open-label, multicenter, case control study designed to evaluate the efficacy and safety of gildeuretinol acetate on the progression of Stargardt disease in asymptomatic individuals. The trial was conducted at multiple sites in the United States.
To assess the safety and efficacy of gildeuretinol acetate in preventing vision loss in asymptomatic individuals, gildeuretinol acetate 14 mg capsules were administered to individuals showing early signs of retinal damage while maintaining approximately 20/20 vision and no subjective loss of vision. […] Based on the above family history and clinical observations, the asymptomatic individuals were likely to develop retinal lesions, loss of photoreceptors, drops in retinal sensitivity, loss of visual acuity, indicating the onset of symptoms, i.e. a progression to the symptomatic phase, including vision loss within two years, mirroring the progression observed in their older siblings.
Patients received gildeuretinol acetate 14 mg capsules, to be taken orally once daily. Trial visits occurred every 6 months approximately following screening and treatment start visits.

[2] = tested on: asymptomatic Stargardt disease patients; experiment: TEASE-3 fundus autofluorescence (FAF) imaging; format: in vivo, human; conditions: after two to four years of treatment, three patients
Protocol: as §1
To assess the safety and efficacy of gildeuretinol acetate in preventing vision loss in asymptomatic individuals, gildeuretinol acetate 14 mg capsules were administered to individuals showing early signs of retinal damage while maintaining approximately 20/20 vision and no subjective loss of vision. […]
Disease progression was monitored by best-corrected visual acuity (BCVA) reported in number of Early Treatment Diabetic Retinopathy Study (ETDRS) letters, fundus autofluorescence (FAF) imaging, loss of photoreceptors (as measured by the ellipsoid zone band loss) by optical coherence tomography (OCT) and retinal sensitivity by microperimetry.

[3] = TEASE-1 safety, adverse events

[2H]C([2H])([2H])C(/C=C/C=C(C)/C=C/C1=C(C)CCCC1(C)C)=C\COC(C)=O [gildeuretinol acetate]
replacement of plasma vitamin A sustained throughout the treatment period [1]: Over 80% | replacement of plasma vitamin A (retinol) with gildeuretinol ([1]; after the first two months, all three participants): 80% | disease progression / changes by FAF imaging [2]: none of the three treated Stargardt disease patients exhibited changes by FAF; also recorded: no observable disease progression; also recorded: no visible disease progression by fundus autofluorescence imaging occurred | Patients experiencing event (%): Death ([3]; 14 mg (N = 15)): 1 (6.7) | Patients experiencing event (%): Influenza ([3]; 14 mg (N = 15)): 0 | Patients experiencing event (%): Vulvovaginal candidiasis ([3]; 14 mg (N = 15)): 0 | Patients experiencing event (%): Wrist fracture ([3]; 14 mg (N = 15)): 0 | Patients experiencing event (%): Xanthelasma ([3]; 14 mg (N = 15)): 0 | Patients experiencing event (%): Death ([3]; 24 mg (N = 15)): 0 | Patients experiencing event (%): Influenza ([3]; 24 mg (N = 15)): 1 (6.7) | Patients experiencing event (%): Vulvovaginal candidiasis ([3]; 24 mg (N = 15)): 1 (6.7) | Patients experiencing event (%): Wrist fracture ([3]; 24 mg (N = 15)): 0 | Patients experiencing event (%): Xanthelasma ([3]; 24 mg (N = 15)): 1 (6.7) | Patients experiencing event (%): Abdominal discomfort ([3]; Crossover (N = 10)): 1 (10.0) | Patients experiencing event (%): Abdominal distension ([3]; Crossover (N = 10)): 0 | Patients experiencing event (%): Abdominal pain upper ([3]; Crossover (N = 10)): 0 | Patients experiencing event (%): Abnormal dreams ([3]; Crossover (N = 10)): 0 | Patients experiencing event (%): Alanine aminotransferase increased ([3]; Crossover (N = 10)): 1 (10.0) | Patients experiencing event (%): Alopecia ([3]; Crossover (N = 10)): 0 | Patients experiencing event (%): Ankle fracture ([3]; Crossover (N = 10)): 0 | Patients experiencing event (%): Arthralgia ([3]; Crossover (N = 10)): 1 (10.0) | Patients experiencing event (%): Arthritis ([3]; Crossover (N = 10)): 1 (10.0) | Patients experiencing event (%): Aspartate aminotransferase increased ([3]; Crossover (N = 10)): 1 (10.0) | Patients experiencing event (%): Back injury ([3]; Crossover (N = 10)): 0 | Patients experiencing event (%): Back pain ([3]; Crossover (N = 10)): 0 | Patients experiencing event (%): Blepharospasm ([3]; Crossover (N = 10)): 1 (10.0) | Patients experiencing event (%): Blood cholesterol increased ([3]; Crossover (N = 10)): 0 | Patients experiencing event (%): Blood creatinine increased ([3]; Crossover (N = 10)): 0 | Patients experiencing event (%): Blood iron decreased ([3]; Crossover (N = 10)): 0 | Patients experiencing event (%): Blood pressure increased ([3]; Crossover (N = 10)): 0 | Patients experiencing event (%): Blood triglycerides increased ([3]; Crossover (N = 10)): 0 | Patients experiencing event (%): Bowel movement irregularity ([3]; Crossover (N = 10)): 0 | Patients experiencing event (%): Bronchitis ([3]; Crossover (N = 10)): 0 | Patients experiencing event (%): Cartilage injury ([3]; Crossover (N = 10)): 0 | Patients experiencing event (%): Conjunctival laceration ([3]; Crossover (N = 10)): 0 | Patients experiencing event (%): Conjunctivitis ([3]; Crossover (N = 10)): 0 | Patients experiencing event (%): Constipation ([3]; Crossover (N = 10)): 0 | Patients experiencing event (%): Cough ([3]; Crossover (N = 10)): 0 | Patients experiencing event (%): Death ([3]; Crossover (N = 10)): 0 | Patients experiencing event (%): Depression ([3]; Crossover (N = 10)): 0 | Patients experiencing event (%): Diarrhoea ([3]; Crossover (N = 10)): 1 (10.0) | Patients experiencing event (%): Diplopia ([3]; Crossover (N = 10)): 0 | Patients experiencing event (%): Dry eye ([3]; Crossover (N = 10)): 0 | Patients experiencing event (%): Dry mouth ([3]; Crossover (N = 10)): 0 | Patients experiencing event (%): Dry skin ([3]; Crossover (N = 10)): 0 | Patients experiencing event (%): Ear discomfort ([3]; Crossover (N = 10)): 0 | Patients experiencing event (%): Ear pain ([3]; Crossover (N = 10)): 0 | Patients experiencing event (%): Eczema ([3]; Crossover (N = 10)): 1 (10.0) | Patients experiencing event (%): Electrocardiogram abnormal ([3]; Crossover (N = 10)): 1 (10.0) | Patients experiencing event (%): Erythema ([3]; Crossover (N = 10)): 0 | Patients experiencing event (%): Eye irritation ([3]; Crossover (N = 10)): 0 | Patients experiencing event (%): Eye pain ([3]; Crossover (N = 10)): 0 | Patients experiencing event (%): Eye pruritus ([3]; Crossover (N = 10)): 0 | Patients experiencing event (%): Face injury ([3]; Crossover (N = 10)): 0 | Patients experiencing event (%): Faeces soft ([3]; Crossover (N = 10)): 0 | Patients experiencing event (%): Fall ([3]; Crossover (N = 10)): 0 | Patients experiencing event (%): Gastroenteritis ([3]; Crossover (N = 10)): 1 (10.0) | Patients experiencing event (%): Hair texture abnormal ([3]; Crossover (N = 10)): 0 | Patients experiencing event (%): Hand fracture ([3]; Crossover (N = 10)): 0 | Patients experiencing event (%): Headache ([3]; Crossover (N = 10)): 0 | Patients experiencing event (%): Hordeolum ([3]; Crossover (N = 10)): 0 | Patients experiencing event (%): Hypertension ([3]; Crossover (N = 10)): 0 | Patients experiencing event (%): Hypobarism ([3]; Crossover (N = 10)): 0 | Patients experiencing event (%): Hypothyroidism ([3]; Crossover (N = 10)): 0 | Patients experiencing event (%): Hysterectomy ([3]; Crossover (N = 10)): 0 | Patients experiencing event (%): Inflammation ([3]; Crossover (N = 10)): 0 | Patients experiencing event (%): Influenza ([3]; Crossover (N = 10)): 0 | Patients experiencing event (%): Insomnia ([3]; Crossover (N = 10)): 0 | Patients experiencing event (%): Intracranial pressure increased ([3]; Crossover (N = 10)): 0 | Patients experiencing event (%): Irritability ([3]; Crossover (N = 10)): 0 | Patients experiencing event (%): Jaw operation ([3]; Crossover (N = 10)): 0 | Patients experiencing event (%): Knee arthroplasty ([3]; Crossover (N = 10)): 0 | Patients experiencing event (%): Laryngitis ([3]; Crossover (N = 10)): 0 | Patients experiencing event (%): Lip swelling ([3]; Crossover (N = 10)): 0 | Patients experiencing event (%): Low density lipoprotein increased ([3]; Crossover (N = 10)): 0 | Patients experiencing event (%): Muscle spasms ([3]; Crossover (N = 10)): 0 | Patients experiencing event (%): Muscle strain ([3]; Crossover (N = 10)): 0 | Patients experiencing event (%): Musculoskeletal pain ([3]; Crossover (N = 10)): 0 | Patients experiencing event (%): Nasopharyngitis ([3]; Crossover (N = 10)): 1 (10.0) | Patients experiencing event (%): Nausea ([3]; Crossover (N = 10)): 0 | Patients experiencing event (%): Neck pain ([3]; Crossover (N = 10)): 0 | Patients experiencing event (%): Nephrolithiasis ([3]; Crossover (N = 10)): 1 (10.0) | Patients experiencing event (%): Nerve compression ([3]; Crossover (N = 10)): 0 | Patients experiencing event (%): Neuralgia ([3]; Crossover (N = 10)): 0 | Patients experiencing event (%): Obsessive-compulsive disorder ([3]; Crossover (N = 10)): 0 | Patients experiencing event (%): Oropharyngeal pain ([3]; Crossover (N = 10)): 1 (10.0) | Patients experiencing event (%): Osteoporosis ([3]; Crossover (N = 10)): 0 | Patients experiencing event (%): Overall ([3]; Crossover (N = 10)): 8 (80) | Patients experiencing event (%): Pain ([3]; Crossover (N = 10)): 0 | Patients experiencing event (%): Pain in extremity ([3]; Crossover (N = 10)): 0 | Patients experiencing event (%): Pain in jaw ([3]; Crossover (N = 10)): 0 | Patients experiencing event (%): Peripheral coldness ([3]; Crossover (N = 10)): 0 | Patients experiencing event (%): Pharyngitis streptococcal ([3]; Crossover (N = 10)): 0 | Patients experiencing event (%): Photophobia ([3]; Crossover (N = 10)): 0 | Patients experiencing event (%): Photopsia ([3]; Crossover (N = 10)): 0 | Patients experiencing event (%): Plantar fasciitis ([3]; Crossover (N = 10)): 0 | Patients experiencing event (%): Pleurisy ([3]; Crossover (N = 10)): 1 (10.0) | Patients experiencing event (%): Pneumonia ([3]; Crossover (N = 10)): 1 (10.0) | Patients experiencing event (%): Premenstrual syndrome ([3]; Crossover (N = 10)): 0 | Patients experiencing event (%): Punctate keratitis ([3]; Crossover (N = 10)): 0 | Patients experiencing event (%): Pyrexia ([3]; Crossover (N = 10)): 0 | Patients experiencing event (%): Radius fracture ([3]; Crossover (N = 10)): 0 | Patients experiencing event (%): Rash ([3]; Crossover (N = 10)): 1 (10.0) | Patients experiencing event (%): Rotator cuff syndrome ([3]; Crossover (N = 10)): 0 | Patients experiencing event (%): Sialoadenitis ([3]; Crossover (N = 10)): 0 | Patients experiencing event (%): Sinus congestion ([3]; Crossover (N = 10)): 0 | Patients experiencing event (%): Sinusitis ([3]; Crossover (N = 10)): 0 | Patients experiencing event (%): Sjogren's syndrome ([3]; Crossover (N = 10)): 0 | Patients experiencing event (%): Subdural haematoma ([3]; Crossover (N = 10)): 0 | Patients experiencing event (%): Syncope ([3]; Crossover (N = 10)): 0 | Patients experiencing event (%): Tendonitis ([3]; Crossover (N = 10)): 0 | Patients experiencing event (%): Thoracic outlet syndrome ([3]; Crossover (N = 10)): 0 | Patients experiencing event (%): Tongue dry ([3]; Crossover (N = 10)): 0 | Patients experiencing event (%): Tooth abscess ([3]; Crossover (N = 10)): 0 | Patients experiencing event (%): Tooth extraction ([3]; Crossover (N = 10)): 0 | Patients experiencing event (%): Toothache ([3]; Crossover (N = 10)): 0 | Patients experiencing event (%): Vision blurred ([3]; Crossover (N = 10)): 1 (10.0) | Patients experiencing event (%): Visual field defect ([3]; Crossover (N = 10)): 1 (10.0) | Patients experiencing event (%): Visual impairment ([3]; Crossover (N = 10)): 0 | Patients experiencing event (%): Vitamin B12 deficiency ([3]; Crossover (N = 10)): 0 | Patients experiencing event (%): Vitamin D decreased ([3]; Crossover (N = 10)): 0 | Patients experiencing event (%): Vitreous floaters ([3]; Crossover (N = 10)): 1 (10.0) | Patients experiencing event (%): Vulvovaginal candidiasis ([3]; Crossover (N = 10)): 0 | Patients experiencing event (%): Wrist fracture ([3]; Crossover (N = 10)): 0 | Patients experiencing event (%): Xanthelasma ([3]; Crossover (N = 10)): 0 | association between treatment groups and frequency of adverse events ([3]; in vivo): no association was observed | changes by physical examination, electrocardiogram, vital signs, hematology, biochemistry and lipid panels ([3]; in vivo): no changes were attributed to gildeuretinol acetate
